We go through 3 molecules from patent US7192906B2, “Substituted pyrazole derivatives, production process thereof, and herbicide compositions containing the derivatives” (SDS Biotech K.K., priority 2001, dated 2007).

SMILES strings stand for the structures.

What all share (assay type): in vivo
The subject of data set [1] is Chenopodium album. Kind of data set: Test Example 1 upland field foliage treatment. Conditions: Table 4, upland field foliage treatment, index 0-5. In a few lines: (§1)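 Seeds sown in upland soil in pots and covered with about 1 cm soil; on day 14 after sowing, diluted wettable powder applied uniformly to leaves at 1 kg active ingredient per hectare. Weed control or crop phytotoxicity scored visually 21 days after application on a 0–5 scale (5 = ≥90%, 0 = <10%).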

Data set [2] has as its system Digitaria adscendens. Put plainly: Test Example 1 upland field foliage treatment. Conditions: Table 4, upland field foliage treatment, index 0-5. In a few lines:
as §1

In data set [3] the test system is Setaria viridis. Put plainly: Test Example 1 upland field foliage treatment. Conditions: Table 4, upland field foliage treatment, index 0-5. The procedure, abridged:
as §1

The subject of data set [4] is Stellaria media. Put plainly: Test Example 1 upland field foliage treatment. Conditions: Table 4, upland field foliage treatment, index 0-5. In a few lines: as §1
The subject of data set [5] is soybean (Glycine max). Put plainly: Test Example 1 upland field foliage treatment, crop phytotoxicity. Conditions: Table 4, upland field foliage treatment, index 0-5. The procedure, abridged: as §1
The test system of data set [6] is wheat (Triticum aestivum). Described as above. Conditions: Table 4, upland field foliage treatment, index 0-5. In a few lines:
as §1

Data set [7] has as its system Chenopodium album. Kind of data set: Test Example 2 upland soil treatment. Conditions: Table 5, upland soil treatment, index 0-5. In a few lines: (§2)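 Score 0–5 read at day 21 (5 = ≥90% effect or phytotoxicity, 0 = <10%). Wettable powder diluted in water to 1 kg a.i./ha, applied uniformly to upland soil one day after sowing; seeds covered with ~1 cm soil.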
In data set [8] the test system is Digitaria adscendens. Put plainly: Test Example 2 upland soil treatment. Conditions: Table 5, upland soil treatment, index 0-5. In a few lines:
as §2

The test system of data set [9] is Setaria viridis. Kind of data set: Test Example 2 upland soil treatment. To be noted: Table 5, upland soil treatment, index 0-5. The procedure, abridged:
as §2

In data set [10] the test system is Stellaria media. Kind of data set: Test Example 2 upland soil treatment. To be noted: Table 5, upland soil treatment, index 0-5. The procedure, abridged: as §2
Data set [11] has as its system soybean (Glycine max). Put plainly: Test Example 2 upland soil treatment, crop phytotoxicity. To be noted: Table 5, upland soil treatment, index 0-5. The procedure, abridged: as §2
For data set [12], the system named is wheat (Triticum aestivum). The description is as above. Conditions: Table 5, upland soil treatment, index 0-5. In a few lines: as §2
The test system of data set [13] is Ammannia multiflora. Put plainly: Test Example 3 paddy field treatment. To be noted: Table 6, paddy field treatment, active ingredient 1 kg per hectare, 21st day after dropping, index 0-5. In a few lines: (§3)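 Weed seeds sown in puddled paddy soil under 4 cm water, with two-leaf Koshihikari rice transplanted; 10 days later a wettable powder was applied to the water surface at 1 kg active ingredient/ha. Scored 21 days after application on a 0–5 scale (0 = <10%, 5 = ≥90% herbicidal effect or phytotoxicity).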

For data set [14], the system named is Echinochloa crusgalli. Kind of data set: Test Example 3 paddy field treatment. To be noted: Table 6, paddy field treatment, active ingredient 1 kg per hectare, 21st day after dropping, index 0-5. The procedure, abridged: as §3
Data set [15] concerns Monochoria vaginalis. Kind of data set: Test Example 3 paddy field treatment. Conditions: Table 6, paddy field treatment, active ingredient 1 kg per hectare, 21st day after dropping, index 0-5. In a few lines:
as §3

Data set [16] relates to Scirpus juncoides. Put plainly: Test Example 3 paddy field treatment. Conditions: Table 6, paddy field treatment, active ingredient 1 kg per hectare, 21st day after dropping, index 0-5. The procedure, abridged:
as §3

In data set [17] the test system is Rice (Oryza sativa). Kind of data set: Test Example 3 paddy field treatment, crop phytotoxicity. To be noted: Table 6, paddy field treatment, transplanted rice, active ingredient 1 kg per hectare, 21st day after dropping, index 0-5. The procedure, abridged:
as §3

Take `CNC(=O)C(Cn1cc(C)c(-c2ccccc2)n1)=NOCF` [Compound 103]: the “Herbicidal activity CA: Chenopodium album” value (“Herbicidal activity CA” below) is on record as 5 (herbicidal effect of not less than 90%, or phytotoxicity of 90% or more) in data set [1] and 5 (herbicidal effect of not less than 90%, or phytotoxicity of 90% or more) in data set [7]. In addition, the “Herbicidal activity DA: Digitaria adscendens” value (“Herbicidal activity DA” below) in [2] is 4 (herbicidal effect of not less than 70% and less than 90%, or phytotoxicity of 70% or more and less than 90%); in data set [8], 5 (herbicidal effect of not less than 90%, or phytotoxicity of 90% or more). Besides, the “Herbicidal activity SV: Setaria viridis” value was 3 (herbicidal effect of not less than 50% and less than 70%, or phytotoxicity of 50% or more and less than 70%) in data set [3]; 4 (herbicidal effect of not less than 70% and less than 90%, or phytotoxicity of 70% or more and less than 90%) in data set [9]. The “Herbicidal activity SM: Stellaria media” value in data set [4] is 5 (herbicidal effect of not less than 90%, or phytotoxicity of 90% or more); in [10] it was 5 (herbicidal effect of not less than 90%, or phytotoxicity of 90% or more). Moreover, the “Herbicidal activity (phytotoxicity) GM: Soybean (Glycine max)” value (from here on “Herbicidal activity (phytotoxicity) GM”) in data set [5] was 0 (herbicidal effect of not less than 0% and less than 10%, or phytotoxicity of 0% or more and less than 10%); in data set [11] it was 0 (herbicidal effect of not less than 0% and less than 10%, or phytotoxicity of 0% or more and less than 10%). In addition, the “Herbicidal activity (phytotoxicity) TA: Wheat (Triticum aestivum)” value (“Herbicidal activity (phytotoxicity) TA” for short) in [6] is 0 (herbicidal effect of not less than 0% and less than 10%, or phytotoxicity of 0% or more and less than 10%); in data set [12] it was 0 (herbicidal effect of not less than 0% and less than 10%, or phytotoxicity of 0% or more and less than 10%). The “Herbicidal activity AM” value in [13] is recorded as 5 (herbicidal effect of not less than 90%, or phytotoxicity of 90% or more). Also, the “Herbicidal activity EC” value in data set [14] is 5 (herbicidal effect of not less than 90%, or phytotoxicity of 90% or more). The “Herbicidal activity MV” value in data set [15] is listed as 5 (herbicidal effect of not less than 90%, or phytotoxicity of 90% or more). In [16], the “Herbicidal activity SJ” value is 5 (herbicidal effect of not less than 90%, or phytotoxicity of 90% or more). Further, in data set [17], the “Herbicidal activity (phytotoxicity) OS” value was 0 (herbicidal effect of not less than 0% and less than 10%, or phytotoxicity of 0% or more and less than 10%).

Take `C=CCON=C(Cn1cc(C)c(-c2ccccc2)n1)C(=O)NC` [Compound 105]: the “Herbicidal activity CA” value was 5 (herbicidal effect of not less than 90%, or phytotoxicity of 90% or more) in [1]; 4 (herbicidal effect of not less than 70% and less than 90%, or phytotoxicity of 70% or more and less than 90%) in data set [7]. Further, the “Herbicidal activity DA” value in data set [2] was 5 (herbicidal effect of not less than 90%, or phytotoxicity of 90% or more); in [8], 4 (herbicidal effect of not less than 70% and less than 90%, or phytotoxicity of 70% or more and less than 90%). Also, the “Herbicidal activity SV: Setaria viridis” value in [3] is 5 (herbicidal effect of not less than 90%, or phytotoxicity of 90% or more); in [9], 4 (herbicidal effect of not less than 70% and less than 90%, or phytotoxicity of 70% or more and less than 90%). Moreover, the “Herbicidal activity SM: Stellaria media” value was 5 (herbicidal effect of not less than 90%, or phytotoxicity of 90% or more) in data set [4]; 4 (herbicidal effect of not less than 70% and less than 90%, or phytotoxicity of 70% or more and less than 90%) in [10]. Also, the “Herbicidal activity (phytotoxicity) GM” value in [5] is 0 (herbicidal effect of not less than 0% and less than 10%, or phytotoxicity of 0% or more and less than 10%); in data set [11], 0 (herbicidal effect of not less than 0% and less than 10%, or phytotoxicity of 0% or more and less than 10%). Moreover, the “Herbicidal activity (phytotoxicity) TA” value in [6] is 0 (herbicidal effect of not less than 0% and less than 10%, or phytotoxicity of 0% or more and less than 10%); in data set [12] it was 0 (herbicidal effect of not less than 0% and less than 10%, or phytotoxicity of 0% or more and less than 10%). Besides, in data set [13], the “Herbicidal activity AM” value was 5 (herbicidal effect of not less than 90%, or phytotoxicity of 90% or more). Further, the “Herbicidal activity EC” value in [14] was 4 (herbicidal effect of not less than 70% and less than 90%, or phytotoxicity of 70% or more and less than 90%). Also, the “Herbicidal activity MV” value in data set [15] was 5 (herbicidal effect of not less than 90%, or phytotoxicity of 90% or more). Further, in [16], the “Herbicidal activity SJ” value was 4 (herbicidal effect of not less than 70% and less than 90%, or phytotoxicity of 70% or more and less than 90%). In addition, the “Herbicidal activity (phytotoxicity) OS” value in data set [17] was 0 (herbicidal effect of not less than 0% and less than 10%, or phytotoxicity of 0% or more and less than 10%).

As to `CNC(=O)C(Cn1cc(C)c(-c2ccc(C=NOC)cc2)n1)=NOC` [Compound 111], the “Herbicidal activity CA” value in [1] is 5 (herbicidal effect of not less than 90%, or phytotoxicity of 90% or more); in data set [7], 5 (herbicidal effect of not less than 90%, or phytotoxicity of 90% or more). The “Herbicidal activity DA” value is 4 (herbicidal effect of not less than 70% and less than 90%, or phytotoxicity of 70% or more and less than 90%) in data set [2]; 4 (herbicidal effect of not less than 70% and less than 90%, or phytotoxicity of 70% or more and less than 90%) in data set [8]. In addition, the “Herbicidal activity SV: Setaria viridis” value in data set [3] is 4 (herbicidal effect of not less than 70% and less than 90%, or phytotoxicity of 70% or more and less than 90%); in data set [9], 4 (herbicidal effect of not less than 70% and less than 90%, or phytotoxicity of 70% or more and less than 90%). The “Herbicidal activity SM: Stellaria media” value in data set [4] is reported as 5 (herbicidal effect of not less than 90%, or phytotoxicity of 90% or more); in data set [10], 5 (herbicidal effect of not less than 90%, or phytotoxicity of 90% or more). Moreover, the “Herbicidal activity (phytotoxicity) GM” value in data set [5] was 0 (herbicidal effect of not less than 0% and less than 10%, or phytotoxicity of 0% or more and less than 10%); in [11], 0 (herbicidal effect of not less than 0% and less than 10%, or phytotoxicity of 0% or more and less than 10%). The “Herbicidal activity (phytotoxicity) TA” value in data set [6] is 0 (herbicidal effect of not less than 0% and less than 10%, or phytotoxicity of 0% or more and less than 10%); in data set [12], 0 (herbicidal effect of not less than 0% and less than 10%, or phytotoxicity of 0% or more and less than 10%). In data set [13], the “Herbicidal activity AM” value is reported as 5 (herbicidal effect of not less than 90%, or phytotoxicity of 90% or more). The “Herbicidal activity EC” value in data set [14] was 5 (herbicidal effect of not less than 90%, or phytotoxicity of 90% or more). For the same molecule, the “Herbicidal activity MV” value in data set [15] is listed as 5 (herbicidal effect of not less than 90%, or phytotoxicity of 90% or more). Also, the “Herbicidal activity SJ” value in data set [16] is 5 (herbicidal effect of not less than 90%, or phytotoxicity of 90% or more). For the same molecule, in [17], the “Herbicidal activity (phytotoxicity) OS” value was 0 (herbicidal effect of not less than 0% and less than 10%, or phytotoxicity of 0% or more and less than 10%).
